How the values were obtained:
TrkB F616A [1] = target: T1, TrkB F616A (Mus musculus, UniProt P15209, F616A); assay: Neuroprotection against KA in TrkB F616A knockin mice with or without 1NMPP1; type: in vivo; details: for KA-induced caspase-3 activation in TrkB F616A mice: 5 mg/kg oral 4 h before KA 20 mg/kg; for KA-induced caspase-3 activation in TrkB F616A mice / TrkB F616A activation (phosphorylation) in knockin mice: without 1NMPP1; for protective effect against KA in F616A mice after 1NMPP1 pretreatment: 5 mg/kg oral 4 h before KA, 1NMPP1 in drinking water; for TrkB phosphorylation in F616A mice after 1NMPP1 pretreatment / TrkB F616A activation (phosphorylation) in knockin mice: 5 mg/kg oral
T1 construct: from tissue; host or cells: TrkB F616A knock-in mice (brain; whole animal in the forced swim test)
T1 sequence (P15209 32-821 F616A): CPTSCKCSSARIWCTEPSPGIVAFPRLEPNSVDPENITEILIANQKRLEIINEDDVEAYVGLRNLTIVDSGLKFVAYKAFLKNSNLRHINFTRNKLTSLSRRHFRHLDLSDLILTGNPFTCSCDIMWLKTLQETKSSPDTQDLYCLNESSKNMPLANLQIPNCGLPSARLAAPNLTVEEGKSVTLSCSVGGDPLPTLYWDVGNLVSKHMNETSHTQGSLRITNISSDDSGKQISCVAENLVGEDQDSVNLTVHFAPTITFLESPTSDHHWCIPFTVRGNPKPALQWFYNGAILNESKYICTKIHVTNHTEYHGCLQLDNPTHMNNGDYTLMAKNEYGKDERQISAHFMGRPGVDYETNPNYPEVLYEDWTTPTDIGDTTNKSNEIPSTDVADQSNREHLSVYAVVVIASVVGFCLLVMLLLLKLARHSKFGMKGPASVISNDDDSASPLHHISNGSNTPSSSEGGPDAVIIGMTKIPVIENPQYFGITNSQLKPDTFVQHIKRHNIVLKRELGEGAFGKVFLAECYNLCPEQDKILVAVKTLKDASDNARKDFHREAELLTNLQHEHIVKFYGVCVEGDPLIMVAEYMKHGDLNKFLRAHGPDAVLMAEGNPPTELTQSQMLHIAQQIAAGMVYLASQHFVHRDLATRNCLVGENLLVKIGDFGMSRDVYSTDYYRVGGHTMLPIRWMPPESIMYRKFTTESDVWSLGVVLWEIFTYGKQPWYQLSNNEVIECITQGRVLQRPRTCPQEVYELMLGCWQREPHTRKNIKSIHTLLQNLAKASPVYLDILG
Method: 4′-DMA-7,8-DHF and 7,8-DHF suppressed KA-induced caspase-3 activation in TrkB F616A mutant knockin mice, which cannot be blocked by 1NMPP1 (top panel).
TrkB F616A knockin mice (2-3 months old) were fed with 1NMPP1 (25 mM) in drinking water one day before pharmacological reagent treatment. Next day, the mice were orally injected with 7,8-DHF or 4′-DMA-7,8-DHF (5 mg/kg) 4 h before kainic acid (20 mg/kg). The control mice were injected with saline, 1NMPP1, kainic acid alone or administrated 7,8-DHF or 4′-DMA-7,8-DHF 4 h before kainic acid. In 4 days, the mice were sacrificed and brains were homogenated and ultracentrafuged. The supernatant ([…]) was employed for SDS-PAGE and immunoblotting analysis with indicated antibodies, respectively.

TrkB F616A [2] = target: T1, TrkB F616A; assay: Forced swim test in TrkB F616A knockin mice with or without 1NMPP1; type: in vivo; details: drugs administrated for 5 days; for immobility time in forced swim test, TrkB F616A knockin mice, after 1NMPP1 treatment: 1NMPP1 (25 μM) in drinking water; for immobility time in forced swim test, TrkB F616A knockin mice, saline group: regular drinking water
Method: Male TrkB knockin mice were given the regular drinking water or 1NMPP1 (25 μM) containing drinking water one day before we started to inject the drugs and sustained throughout the whole experiment. The indicated control (saline) and drugs were administrated for 5 days. […] None of the drugs produced a significant change in 1NMPP1 treated TrkB KI mice (n=6 to 7 mice) as compared to control.
TrkB F616A knockin mice were used to assess whether the behavior responses by 7,8-DHF and its derivative is mediated by TrkB receptor. Transgenic mice were subjected to saline or 1NMPP1 pretreatment, respectively.

Akt = Akt activation / p-Akt 473 ELISA in primary cortical neurons; type: cell-based, rat; details: 500 nM
Method: The cell lysates (20 μg/sample) from the neurons treated with various indicated drugs were analyzed by p-Akt ELISA. The quantitative p-Akt activity in ELISA correlated with TrkB activity. Results were expressed as mean (SEM(*P<0.05, compared with the vehicle control group, Student t test, n=3).
Phospho-Akt ELISA assay by the synthetic compounds in cortical neurons. Primary cortical cultures from […] rat embryos were treated with 500 nMof various 7,8-DHF derivatives. The cell lysates were analyzed by the ELISA (left panel) (*, P<0.05; ***, P<0.001 vs vehicle, Student's t test). Different doses of 4′-DMA-7,8-DHF and 7,8-DHF were incubated with primary cortical neurons for 15 min. The cell lysates (20 μg) were analyzed with p-Akt ELISA (right panel) (*, P<0.05; **, P<0.01; ***, P<0.001 vs control; one-way ANOVA: b, P<0.01; c, P<0.001 vs 7,8-DHF at same concentration, Student's t test). […]
7,8-dihydroxyflavone (7,8-DHF) is a small molecular TrkB agonist. […] The cell lysates were analyzed by immunoblotting. […]
To compare the TrkB activation by these synthetic compounds, primary cortical cultures were prepared. […] TrkB activation was monitored at different time points.
Additional compounds are listed as designated from a to m (FIG. 6A). […] The cell lysates were analyzed by immunoblotting. […] Moreover, p-Akt ELISA was monitored to quantitatively analyze the agonistic activities of these compounds.

Akt and MAPK = assay: Downstream p-Akt / p-MAPK signaling in mouse brain after oral administration (immunoblotting, p-Akt ELISA); type: in vivo; details: 1 mg/kg oral; for Akt and MAPK activation (TrkB signaling) in mouse brain at 2 h: C57BL/6J mice, p-Akt 473 and p-MAPK immunoblotting
Method: The data were from two sets of replicated experiments.
1 mg/kg of various compounds were orally administrated into C57 BL/6J mice and TrkB phosphorylation and its downstream signaling cascades including Akt and MAPK in mouse brain were analyzed by immunoblotting at 2 h.
The brain lysates were prepared and analyzed with p-Akt ELISA kit.
The compounds were orally injected (1 mg/kg) into C57BL/6J mice. The TrkB and its downstream signaling cascades activation at 2 h were examined after drug administration with mouse brain tissues. […] The downstream p-Akt and p-MAPK tightly coupled to p-TrkB signals.

SMILES | KA-induced caspase-3 activation in TrkB F616A mice (TrkB F616A [1]) | protective effect against KA in F616A mice after 1NMPP1 pretreatment (TrkB F616A [1]) | TrkB phosphorylation in F616A mice after 1NMPP1 pretreatment (TrkB F616A [1]) | TrkB F616A activation (phosphorylation) in knockin mice (TrkB F616A [1]) | immobility time in forced swim test, TrkB F616A knockin mice, after 1NMPP1 treatment (TrkB F616A [2]) | immobility time in forced swim test, TrkB F616A knockin mice, saline group (TrkB F616A [2]) | agonistic activity by p-Akt ELISA in neurons (Akt; 20 min, primary rat cortical neurons (13 DIV)) | Akt and MAPK activation (TrkB signaling) in mouse brain at 2 h (Akt and MAPK) | Akt activation in mouse brain (p-Akt ELISA), compared with compound i (Akt and MAPK; brain lysates, time course) | Akt activation pattern over time (Akt; primary neurons, time course)
O=c1cc(-c2ccccc2)oc2c(O)c(O)ccc12 [7,8-DHF, 7,8-dihydroxyflavone, reference compound] | markedly diminished | abolished | notably blocked by 1NMPP1 pretreatment | strongly activated | neither 4′-DMA-7,8-DHF nor 7,8-DHF had any significant effect on the immobility time | substantially reduced the immobility time | – | – | – | –
CN(C)c1ccc(-c2cc(=O)c3ccc4nc[nH]c4c3o2)cc1 [compound m, 8-(4-(dimethylamino)phenyl)chromeno[7,8-d]imidazol-6(1H)-one] | – | – | – | – | – | – | possesses the strongest effect in activating TrkB receptor | potently activated TrkB signaling in mouse brain | more robust and sustained Akt activation than compound i | –
CN(C)c1ccc(-c2cc(=O)c3ccc(O)c(O)c3o2)cc1 [4′-DMA-7,8-DHF, 4′-dimethylamino-7,8-dihydroxyflavone] | markedly diminished | abolished | notably blocked by 1NMPP1 pretreatment | strongly activated | neither 4′-DMA-7,8-DHF nor 7,8-DHF had any significant effect on the immobility time | substantially reduced the immobility time | – | potently activated TrkB signaling in mouse brain | – | temporally coupled to TrkB activation
